Source: patent publication EP1209158A1, “Substituted beta-carbolines” (Aventis Pharma Deutschland GmbH, priority 2000, dated 2002)
Where a name gives a salt, the structure may show the parent alone.

What was measured:
[1] = system: mouse heterotopic cardiac transplant (BALB/c->C57BL/6 or B6/129); test: Mouse heterotopic cardiac transplant model; format: in vivo; conditions: oral administration, 25 mg/kg/day for 14 days, starting at transplantation
Description: In the mouse heterotopic cardiac transplant model across full histocompatibility barriers (BALB/c->C57BL/6 or B6/129), graft survival is typically limited to 7.3 ± 0.4 days (mean ± SD, […]) (see for example in Hancock WW, Sayegh MH, Zheng XG, Peach R, Linsley PS, Turka LA. Costimulatory function and expression of CD40-ligand, CD80 and CD86 or in vascularized murine cardiac allograft rejection. Proc Natl Acad Sci (USA) 93, 1996, 13967-13972; and Hancock W W, Buelow R, Sayegh MH, Turka LA. Antibody-induced transplant arteriosclerosis is prevented by graft expression of antioxidant and anti-apoptotic genes. Nature Med 4, 1998, 1392-1396).
The effects of oral administration of the compounds according to examples 49 and 60 were tested using 25 mg/kg/day for 14 days, starting at transplantation in said animal model. Whereas grafts in animals receiving the carrier, methylcellulose, rejected by 7 days (6.7 ± 0.8), grafts in compound 49-treated mice survived around 15 days (15.3 ± 0.6), and grafts in those given compound 60 survived for 20 days (20 ± 1). Current immunosuppressive therapies used in transplantation have limited efficacy and/or considerable toxicity.

[2] = target: T1, IκBα-kinase complex (Homo sapiens, UniProt O14920+O15111); test: biochemical; conditions: activated kinase complex from HeLa S3 cell-extracts S100 fraction; 30 minutes pre-incubation at 25°C; biotinylated peptide substrate; read-out: IkB-kinase IC50
T1 construct: IKBα kinase complex was prepared by first diluting 10 mL of HeLa S3 cell-extracts S100 fraction; endogenous in cells; host or cells: HeLa S3 (S100 fraction, 40% ammonium sulfate cut, Superose-6 fractions at about 670 kDa)
T1 sequence (O14920 whole entry): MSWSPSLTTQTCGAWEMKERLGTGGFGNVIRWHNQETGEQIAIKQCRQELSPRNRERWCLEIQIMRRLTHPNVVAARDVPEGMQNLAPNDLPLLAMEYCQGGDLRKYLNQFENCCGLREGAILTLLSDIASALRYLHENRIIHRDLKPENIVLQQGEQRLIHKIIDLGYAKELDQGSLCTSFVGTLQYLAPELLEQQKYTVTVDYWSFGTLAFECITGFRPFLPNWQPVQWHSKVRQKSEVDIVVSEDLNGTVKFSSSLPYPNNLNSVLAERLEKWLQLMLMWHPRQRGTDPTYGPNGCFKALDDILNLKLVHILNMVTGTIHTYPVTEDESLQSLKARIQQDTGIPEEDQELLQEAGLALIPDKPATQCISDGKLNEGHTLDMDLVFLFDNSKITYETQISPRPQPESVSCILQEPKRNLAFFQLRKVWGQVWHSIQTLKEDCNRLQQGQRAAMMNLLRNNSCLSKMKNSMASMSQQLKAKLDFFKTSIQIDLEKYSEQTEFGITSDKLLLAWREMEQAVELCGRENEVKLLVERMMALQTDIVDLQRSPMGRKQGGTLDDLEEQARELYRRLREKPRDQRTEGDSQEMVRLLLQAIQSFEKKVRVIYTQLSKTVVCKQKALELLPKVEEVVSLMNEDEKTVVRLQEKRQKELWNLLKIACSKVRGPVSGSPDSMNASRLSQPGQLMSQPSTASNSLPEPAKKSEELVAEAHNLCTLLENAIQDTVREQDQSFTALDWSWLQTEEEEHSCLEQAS
T1 sequence (O15111 whole entry): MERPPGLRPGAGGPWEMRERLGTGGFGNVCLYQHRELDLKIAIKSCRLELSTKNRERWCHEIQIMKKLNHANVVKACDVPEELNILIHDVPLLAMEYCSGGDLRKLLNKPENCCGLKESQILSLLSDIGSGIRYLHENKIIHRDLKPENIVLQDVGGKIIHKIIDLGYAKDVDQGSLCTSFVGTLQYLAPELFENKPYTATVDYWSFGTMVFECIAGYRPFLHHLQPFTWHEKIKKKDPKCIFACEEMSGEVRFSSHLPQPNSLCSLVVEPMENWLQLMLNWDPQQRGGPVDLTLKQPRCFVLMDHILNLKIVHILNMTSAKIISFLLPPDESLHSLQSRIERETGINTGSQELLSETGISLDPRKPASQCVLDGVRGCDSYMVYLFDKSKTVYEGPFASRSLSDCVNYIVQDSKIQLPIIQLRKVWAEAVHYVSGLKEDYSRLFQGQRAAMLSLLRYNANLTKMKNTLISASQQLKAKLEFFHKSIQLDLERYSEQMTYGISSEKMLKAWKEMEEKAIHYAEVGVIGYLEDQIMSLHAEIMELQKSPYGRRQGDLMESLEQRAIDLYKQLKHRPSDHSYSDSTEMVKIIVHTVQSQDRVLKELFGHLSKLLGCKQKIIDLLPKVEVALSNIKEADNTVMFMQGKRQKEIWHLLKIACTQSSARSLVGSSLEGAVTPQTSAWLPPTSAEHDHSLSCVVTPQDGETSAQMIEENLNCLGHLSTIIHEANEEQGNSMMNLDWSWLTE
T1 sequence (Q9Y6K9 whole entry partner): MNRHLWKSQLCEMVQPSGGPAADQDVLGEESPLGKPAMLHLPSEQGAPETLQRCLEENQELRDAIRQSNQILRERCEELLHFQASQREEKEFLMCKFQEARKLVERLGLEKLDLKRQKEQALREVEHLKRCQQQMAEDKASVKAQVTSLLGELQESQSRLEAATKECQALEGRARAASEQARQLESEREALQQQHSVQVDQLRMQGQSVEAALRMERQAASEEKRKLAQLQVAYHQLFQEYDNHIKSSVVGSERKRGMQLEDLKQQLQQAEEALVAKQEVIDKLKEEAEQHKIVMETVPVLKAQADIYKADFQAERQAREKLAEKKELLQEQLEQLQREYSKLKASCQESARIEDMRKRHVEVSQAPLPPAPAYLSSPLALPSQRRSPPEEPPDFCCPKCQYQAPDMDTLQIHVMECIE

| IC50 [2] | Compound | graft survival [1] |
| --- | --- | --- |
| – | 7-chloro-9-(4-fluorobenzoylamino)-β-carboline trifluoroacetate [Example 49] | 15.3 ± 0.6 days |
| 400 nM | CC(=O)c1nccc2c1[nH]c1cc(Br)ccc12 [Example 2, 1-acetyl-7-bromo-β-carboline] | – |
| 1000 nM | N#Cc1ccc2c(c1)[nH]c1cnccc12 [Example 5, 7-cyano-β-carboline] | – |
| 3000 nM | O=[N+]([O-])c1ccc2c(c1)[nH]c1cnccc12 [Example 6, 7-nitro-β-carboline hydrochloride] | – |
| 200 nM | Brc1ccc2c3ccncc3n(Br)c2c1 [Example 8, 7,9-dibromo-β - carboline hydrochloride] | – |
| 200 nM | Clc1ccc2c3ccncc3n(Cl)c2c1 [Example 9, 7,9-dichloro-β-carboline] | – |
| 500 nM | CC(=O)c1nccc2c1[nH]c1cc(Cl)ccc12 [Example 13, 1-acetyl-7-chloro-β - carboline] | – |
| 4000 nM | O=[N+]([O-])n1c2cnccc2c2ccc(Cl)cc21 [Example 14, 7-chloro-9-nitro-β-carboline] | – |
| 800 nM | Nn1c2cnccc2c2ccc(Cl)cc21 [Example 15, 9-amino-7-chloro-β-carboline] | – |
| 2200 nM | Oc1nccc2c1[nH]c1cc(C(F)(F)F)ccc12 [Example 41, 1-hydroxy-7-trifluoromethyl-β-carboline] | – |
| 800 nM | FC(F)(F)c1ccc2c(c1)[nH]c1cnccc12 [Example 42, 7-trifluoromethyl-β-carboline] | – |
| – | O=C(Nc1cc(Cl)cc2c1[nH]c1cnccc12)c1cccnc1 [Example 60, N-(6-Chloro-9H-β-carbolin-8-yl)-nicotinamide] | 20 ± 1 days |

| Compound | IC50 [2] | graft survival [1] |
| --- | --- | --- |
| 7-chloro-9-(Acetyl-methylamino)-β-carboline trifluoroacetate [Example 48] | 4000 nM | – |
| 7-chloro-9-(methylamino)-β-carboline trifluoroacetate [Example 43] | 1000 nM | – |
| Fc1ccc2c(c1)[nH]c1cnccc12 [Example 3, 7-fluoro-β-carboline] | 1000 nM | – |
| CC(C)c1ccc2c(c1)[nH]c1cnccc12 [Example 4, 7-isopropyl-β -carboline hydrochloride] | 2500 nM | – |
| O=C(O)c1ccc2c(c1)[nH]c1cnccc12 [Example 7, 7-carboxy-β-carboline trifluoroacetat] | 65000 nM | – |
| Cn1ccc2c3cccc(O)c3nc-2c1 [Example 23, 8-hydroxy-2-methyl-β-carboline] | 22000 nM | – |
| COc1ccc2c(c1)[nH]c1cnccc12 [Example 30, 7-methoxy-β - carboline] | 5200 nM | – |
| Fc1c(Cl)ccc2c1[nH]c1cnccc12 [Example 34, 7-chloro-8-fluoro-β - carboline] | 1000 nM | – |
| COc1ccc2c(c1)[nH]c1c(C)nccc12 [Example 35, 7-methoxy-1-methyl-β - carboline] | 3500 nM | – |
